Experimental data published in patent publication US20150157651A1, “TRI-SUBSTITUTED GLYCEROL COMPOUNDS FOR USE IN THE TREATMENT OF CLINICALLY ISOLATED SYNDROME AND/OR MULTIPLE SCLEROSIS” (ALPHAPTOSE GMBH, priority 2012, published 2015).
≈ marks a conversion by molar mass, not a printed value. Entries after “also recorded” stand apart in the source; their conditions may differ.

Experiments:
[1] = tested on: human peripheral blood mononuclear cells (PBMCs); assay: PBMC proliferation, edelfosine added on cell seeding, with or without PHA; format: cell-based
Procedure: (§1) FIG. 1: Human T-cell proliferation was affected by edelfosine. […] (B) The inhibitory effect of edelfosine was also observed if the drug was added to already activated, proliferating T cells. […] (C) Preincubation of PBMCs with at least 3.3 μg/ml edelfosine interfered with the cells' capacity to proliferate upon PHA stimulation. No effect was detected in preconditioned, but unstimulated cells (experiments A-C: sample size n=3 donors, each approach was seeded in triplicates). (D) 1 μg/ml edelfosine or higher concentrations profoundly diminished proliferation in MBP(83-99)-specific TCLs (T-cell line). One representative TCL of two is shown. Cells were incubated in quadruplicates. (E) PBMCs were cultured without addition of stimulus. Proliferation was detectable after seven days. […] Bars represent mean values±SEM, *P<0.05, **P<0.01 and ***P<0.001 after post-hoc analysis.
FIG. 9 describes the influence of edelfosine on human T cell proliferation. […] PBMCs were used for the examination of concentration-dependent edelfosine impact on human T cell activation and proliferation (b, 72 h of co-culture). A reduction in proliferation was already detectable upon addition of 1.0 μg/ml edelfosine (**P<0.01, n=3). Enriched CD4+ T cells from PBMCs of both two age-matched female and male donors were incubated for 30 h in presence of 3.3 μg/ml edelfosine. Cells were stimulated with beads coated with antibodies against CD2, CD3 and CD28.
In order to characterize the influence of edelfosine on the proliferation of human T cells, peripheral blood mononuclear cells (PBMCs) were first stimulated with a mitogenic stimulus, PHA (phytohemagglutinin) Proliferation was analyzed after three days of culture. First, the impact of edelfosine on T-cell activation and proliferation was investigated by adding edelfosine immediately as the cells were seeded. Cells were incubated without or in the presence of PHA. […] Here, the half maximal inhibitory concentration (IC50) was determined by nonlinear regression.

human PBMCs [2] = assay: Proliferation of already PHA-activated, proliferating PBMCs, edelfosine added two days later; format: cell-based
Procedure: as §1
The second approach aimed at characterizing the edelfosine influence on already proliferating cells. For that reason cells were activated with PHA, and edelfosine was added two days later.

human PBMCs [3] = assay: PBMC proliferation after 24 h preincubation with edelfosine, washing, then PHA stimulation; format: cell-based
Procedure: as §1
Cells were washed extensively to remove edelfosine followed by further culturing for three days. In control approaches cells were incubated without PHA. […] 3.3 μg/ml edelfosine or higher interfered with the cellular capacity to proliferate upon stimulation with PHA.

human PBMCs [4] = assay: PBMC proliferation over seven days without addition of stimulus; format: cell-based; settings: 3.3 μg/ml edelfosine, up to seven days
Procedure: as §1
In an additional approach PBMCs were incubated for up to seven days without the addition of a stimulus. Cells were cultured in medium alone, in presence of anti-HLA-DR- and anti-MHC class I-blocking antibody or with 3.3 μg/ml edelfosine.

human CD4+ T cells [5] = assay: Whole genome expression (microarray) analysis of CD4+ T cells; format: cell-based
Procedure: FIG. 2: Modulated gene expression in CD4+ T cells upon culture with edelfosine.
Enriched CD4+ T cells from PBMCs of two age-matched female as well as two age-matched male donors were incubated for 30 h without edelfosine, in presence of 3.3 μg/ml edelfosine and 10 μg/ml edelfosine, respectively. In parallel approaches, cells were incubated with beads coated with antibodies against CD2, CD3 and CD28 or with coated beads and 3.3 μg/ml edelfosine. Cell-culture supernatant was saved and cells were subjected to RNA isolation, cDNA synthesis and microarray analysis for gene expression. Comparative gene-expression analysis was performed according to FIG. 2.
In general, edelfosine modulated the gene expression of human CD4+ T cells in the case of stimulation but also if no exogenous stimulus was added, although to a limited extent. […] Therefore, further analysis of the unstimulated cells focused on the 10 μg/ml edelfosine approach. Next, the database for annotation, visualization and integrated discovery (DAVID)-bioinformatics database was used to annotate the differentially expressed genes to functional themes/groups and assign to them so-called gene-ontology (GO) terms for specific pathways of cellular function (314). The GO project is an effort to consistently describe gene products in databases. DAVID, as a tool, is designed to allow systematical mapping of large numbers of genes in lists associated with biological annotations (e.g. GO terms). Three structured controlled vocabularies (ontologies) have been developed to describe gene products in a species-independent manner: the associated biological process (BP), cellular components and molecular functions. The GOTERM_BP_FAT set which has been specifically designed by the DAVID consortium was selected to filter the broadest terms in order to prevent overshadowing of more specific terms. FIG. 3 summarizes the top-3 GO-terms which were selected due to their highest GO P-values. As shown therein, the addition of […] edelfosine was leading to an upregulation of genes associated with apoptosis and cell death in the unstimulated setting, a finding that was in accordance with the previously described analysis for annexin V and PI after edelfosine incubation.

[6] = tested on: relapsing-remitting EAE (RR-EAE) model in SJL mice; assay: Relapsing-remitting EAE disease course, clinical scoring; format: in vivo
Excerpt: FIG. 6 describes the influence of edelfosine on EAE disease course. Our aim was to study the effect of edelfosine on the immune system in the context of experimental autoimmune encephalomyelitis (EAE), an animal model of multiple sclerosis. In the course of EAE CD4+ T cell and mononuclear cell inflammation is followed by axonal damage and demyelination in the central nervous system (CNS) which results in progressive hind-limb paralysis. In order to analyze the anti-inflammatory properties of edelfosine we have used the relapsing-remitting EAE (RR-EAE) model in SJL mice. We also examined the edelfosine impact on human T-cell proliferation. For EAE induction SJL mice were immunized with the proteolipid PLP(139-151). Edelfosine was adminstered by intraperitoneal injection from day 0 at a daily basis. EAE disease course was assessed by clinical scoring in a 0-5 scale until day 40 (*P<0.05, 2-way ANOVA, n=7). To investigate the therapeutic effect of edelfosine on RR-EAE disease course, SJL mice were immunized and treatment of the mice was started at disease onset by intraperitoneal injection from day 11 at a daily basis until day 45.

[7] = tested on: lymph node cells of SJL mice; assay: Ex vivo thymidine proliferation of lymph node cells from treated immunized mice; format: in vivo
Procedure: FIG. 7 describes the impact of edelfosine on proliferation of antigen-specific cells. To examine the influence of edelfosine on antigen-specific cells in the periphery lymph nodes from SJL mice were prepared for thymidine proliferation assays 9 days after immunization. Cells were restimulated ex vivo by addition of mitogenic- (a), polyclonal or disease-relevant (PLP(139-151); b) antigen.

[8] = tested on: CNS-infiltrating cells of EAE SJL mice; assay: CNS cellular infiltration in EAE acute phase, flow cytometry; format: in vivo; settings: 15 days after EAE induction
Procedure: FIG. 8 describes the effect of edelfosine on CNS cellular infiltration in EAE acute phase. SJL mice were immunized with […]. 15 days after EAE induction CNS cells were analyzed by flow cytometry. The administration of 10 mg/kg edelfosine reduced the absolute number of CNS-infiltrating CD45+ leukocytes (a). […] We found a significant treatment effect with a significant difference between 10 mg/kg edelfosine and PBS treatment in CD4+ cells (*P<0.05 compared to PBS control group, post-hoc comparison after 1-way ANOVA, n=4). Similar differences were found for T cells in spleens at day 9 after immunization.

non-stimulated PBMCs = assay: Flow cytometry of non-stimulated PBMCs for cell death; format: cell-based, human; settings: 10 μg/ml or 33.3 μg/ml, 24 h
human CD4+ T cells [9] = assay: Whole genome expression (microarray) analysis of CD4+ T cells; format: cell-based; settings: unstimulated cells, 10 μg/ml, 30 h
[10] = cells stimulated with anti-CD2/CD3/CD28 beads, 3.3 μg/ml, 30 h
[11] = unstimulated cells, 10 μg/ml, 30 h

Q: Which results are given for `CCCCCCCCCCCCCCCCCCOC[C@H](COP(=O)([O-])OCC[N+](C)(C)C)OC` (racemic) [edelfosine, 1-O-octadecyl-2-O-methyl-sn-glycero-3-phosphocholine]?
A: IC50 ([1]; Homo sapiens, PBMC, 72 h, read-out: half maximal inhibitory concentration (IC50) of proliferation, PHA-stimulated cells, edelfosine added at seeding, three days of culture): 0.64 ± 0.1 µg/mL (≈ 1.22 µM); fold lower concentration at which PHA-activated cells are susceptible compared to cells without PHA ([1]; PHA-activated versus unstimulated PBMCs): 10 fold; edelfosine concentration at which a reduction in proliferation was detectable ([1]; unstimulated controls, added at seeding, three days): ≥ 10 µg/mL; edelfosine concentration giving efficient reduction of proliferation (human PBMCs [2]; PHA-activated cells, edelfosine added two days later): ≥ 3.3 µg/mL; edelfosine concentration giving significant reduction of proliferation (human PBMCs [2]; unstimulated controls): 33.3 µg/mL; edelfosine concentration up to which cells retain proliferative function (human PBMCs [3]; 24 h preincubation, washed, PHA stimulation, three days): up to 1 μg/ml; effect on proliferation (human PBMCs [3]; preconditioned but unstimulated cells): no significant reductions of proliferation; also recorded: No effect; effect on proliferation without stimulus (human PBMCs [4]): reduced to non-detectable levels; also recorded: inhibited cellular proliferation; expression of cell cycle-associated genes (human CD4+ T cells [5]; [10]): downmodulation; also recorded: down-regulated; expression of genes associated with apoptosis and cell death (human CD4+ T cells [5]; [10]): upregulation; expression of immune and virus response-associated, type I interferon-related genes (human CD4+ T cells [5]; [10]): consistent and profound upregulation; also recorded: upregulated; number of downregulated genes assigned to antigen processing and presentation (SLR≦−0.8) (human CD4+ T cells [5]; unstimulated cells, 10 μg/ml): 25; expression of immune response and antigen processing and presentation (MHC class II) genes (human CD4+ T cells [5]; [11]): downmodulation; also recorded: downregulated; number of upregulated genes (SLR≧0.8) (human CD4+ T cells [5]; [11]): 11; EAE disease course ([6]; prophylactic, 10 mg/kg daily intraperitoneal from day 0): EAE amelioration; EAE disease course ([6]; therapeutic, 10 mg/kg daily intraperitoneal from disease onset (day 11)): EAE amelioration; proliferative function of lymph node cells on ex vivo restimulation ([7]; 9 days after immunization, edelfosine-treated mice): retained their proliferative function; proliferation on re-activation with PLP peptide ([7]; 9 days after immunization, ex vivo PLP restimulation): edelfosine dose-dependent proliferation; SI compared to PBS treatment of mice ([7]; antigen-induced proliferation, edelfosine-treated mice): increased SI; absolute number of CNS-infiltrating CD45+ leukocytes ([8]; 10 mg/kg): reduced; frequencies of CD8+ T cells ([8]; 10 mg/kg): not affected; infiltrating CD4+ T cells ([8]; 10 mg/kg): relative decrease; activation of caspase 3 in CNS CD4+ T cells ([8]; significant for 10 mg/kg versus PBS): dose-dependent activation; also recorded: increased; cell death in non-stimulated PBMCs (non-stimulated PBMCs): induction of non-apoptotic cell death; expression of apoptosis- and cell death-associated genes (human CD4+ T cells [9]): upregulation
